Experimental data reported in the NIST ThermoML archive (doi:10.1021/acs.jced.8b00680).
Several values for one entry are separate records, joined by “and”; a condition that tells them apart may be missing. Equal values may be shown once. ± gives the expanded uncertainty stated by the source.

Conditions: Liquid, Ebulliometric method (Recirculating still)

CCCCCCCCO [octan-1-ol]
Conditions | vapor or sublimation pressure [kPa]
436.67 K | 40 ± 1.1
437.67 K | 40.08 ± 0.92
443.61 K | 48.62 ± 0.93
445.86 K | 52.15 ± 0.99
450.45 K | 60.03 ± 1
454.35 K | 67.6 ± 1.1
457.08 K | 74.25 ± 1.2
460.31 K | 81.52 ± 1.2
463.5 K | 89.16 ± 1.2
466.8 K | 97.64 ± 1.3

CCCCCCCO [heptan-1-ol]
Conditions | vapor or sublimation pressure [kPa]
419.4 K | 40 ± 1.1
420.4 K | 40.12 ± 0.96
423 K | 44.2 ± 0.96
426.27 K | 49.44 ± 1
430.35 K | 56.78 ± 1.1
433.75 K | 63.5 ± 1.1
438.22 K | 73.4 ± 1.2
441.44 K | 81.04 ± 1.2
444.34 K | 88.14 ± 1.2

CCCCCCCCC [nonane]
Conditions | vapor or sublimation pressure [kPa]
392.17 K | 40 ± 1.1
392.77 K | 39.96 ± 0.9
399.76 K | 49.24 ± 0.94
404.65 K | 58.04 ± 1
409.14 K | 66.68 ± 1.1
413.23 K | 75.48 ± 1.1
417.05 K | 84.18 ± 1.2
420.83 K | 93.72 ± 1.3
423.88 K | 101.7 ± 1.3

CCCCCCCCCC [decane]
Conditions | vapor or sublimation pressure [kPa]
414.08 K | 40 ± 0.9
414.18 K | 40 ± 1.1
420.5 K | 48.74 ± 0.93
425.83 K | 57.04 ± 0.98
431.14 K | 66.32 ± 1
435.6 K | 75.05 ± 1.1
439.77 K | 83.97 ± 1.1
443.51 K | 92.72 ± 1.2
446.01 K | 98.88 ± 1.2

CCCCCCCCCCO [decan-1-ol]
Conditions | vapor or sublimation pressure [kPa]
469.23 K | 40 ± 1.1
469.83 K | 40.03 ± 0.91
472.98 K | 44.4 ± 0.92
475.4 K | 47.97 ± 0.94
476.8 K | 50.19 ± 0.94
479.42 K | 54.07 ± 0.94
481.36 K | 57.04 ± 0.95
484.05 K | 61.26 ± 0.96
487.9 K | 67.43 ± 1
491.16 K | 73.44 ± 1.1
492.56 K | 76.32 ± 1.1
494.46 K | 79.92 ± 1.1
496.88 K | 85.24 ± 1.1

CCCCCCCCCCC [undecane]
Conditions | vapor or sublimation pressure [kPa]
434.5 K | 40 ± 1.1
434.6 K | 40.04 ± 0.88
438.71 K | 45.18 ± 0.89
442.2 K | 50.04 ± 0.92
445.4 K | 54.82 ± 0.95
448.68 K | 60.13 ± 0.98
451.59 K | 65.09 ± 1
454.55 K | 70.48 ± 1.1
458.59 K | 78.59 ± 1.1

CCCCCCO [hexan-1-ol]
Conditions | vapor or sublimation pressure [kPa]
402.36 K | 40 ± 1.1
403.66 K | 40.02 ± 1.1
407.89 K | 48.72 ± 1.1
413.31 K | 58.84 ± 1.1
418.35 K | 69.27 ± 1.1
421.9 K | 77.4 ± 1.2
425.15 K | 85.63 ± 1.3
427.54 K | 92.07 ± 1.6
429.19 K | 99.78 ± 2

CCCCCCCCCCCCCC [tetradecane]
Conditions | vapor or sublimation pressure [kPa]
489.17 K | 40 ± 0.85
489.26 K | 40.04 ± 0.86
491.29 K | 42.42 ± 0.86
492.53 K | 43.8 ± 0.86
495.18 K | 46.96 ± 0.87
496.08 K | 48.13 ± 0.88
497.96 K | 50.5 ± 0.88
498.07 K | 50.7 ± 0.89

CCO [ethanol]
Conditions | vapor or sublimation pressure [kPa]
351.44 K | 101.3 ± 2.2

CCCCCO [pentan-1-ol]
Conditions | vapor or sublimation pressure [kPa]
384.45 K | 40 ± 1.1
384.85 K | 40.01 ± 1
392.76 K | 54.41 ± 1.1
398.11 K | 66.15 ± 1.2
400.95 K | 72.93 ± 1.3
404.59 K | 82.75 ± 1.3
407.17 K | 90.21 ± 1.4
410.73 K | 101.2 ± 1.4

CC(C)CC(C)(C)C [2,2,4-trimethylpentane]
Conditions | vapor or sublimation pressure [kPa]
372.26 K | 101.3 ± 2.2

CCCCCCCCCCCC [dodecane]
Conditions | vapor or sublimation pressure
453.92 K | 40.08 ± 0.86 kPa and 40 ± 1.1 kPa
456.87 K | 43.58 ± 0.87 kPa
459.31 K | 46.71 ± 0.89 kPa
461.72 K | 49.93 ± 0.92 kPa
465.47 K | 55.35 ± 0.93 kPa
467.52 K | 58.41 ± 0.96 kPa
470.69 K | 63.63 ± 0.99 kPa
474.33 K | 69.97 ± 1 kPa
478.47 K | 77.75 ± 1 kPa
